Source: ChEMBL document CHEMBL4610120, “New Broad-Spectrum Antibiotics Containing a Pyrrolobenzodiazepine Ring with Activity against Multidrug-Resistant Gram-Negative Bacteria” (J Med Chem, 2020)
≈ marks a conversion by molar mass, not a printed value.

System: not listed separately
Experiment: Selectivity ratio of cytotoxicity against human WI38 cells to MIC for Klebsiella pneumoniae M6
Format: toxicity, cell-based
Conditions: not given

SMILES	selectivity ratio
COc1cc2c(cc1OCCCC(=O)Nc1cc(C(=O)Nc3ccc4oc(C(=O)N5CCCCC5)cc4c3)n(C)c1)N=C[C@@H]1CCCN1C2=O	10
CCN(CC)C(=O)c1cc2cc(NC(=O)c3cc(NC(=O)CCCOc4cc5c(cc4OC)C(=O)N4CCC[C@H]4C=N5)cn3C)ccc2s1	10

System: Staphylococcus aureus
Experiment: Antibacterial activity against methicillin resistant Staphylococcus aureus NCTC 13616 by microdilution broth method
Format: functional
Conditions: not given

SMILES	MIC [µg/mL]
COc1cc2c(cc1OCCCC(=O)Nc1cc(C(=O)Nc3ccc4oc(C(=O)N5CCCCC5)cc4c3)n(C)c1)N=C[C@@H]1CCCN1C2=O	0.25 (≈ 0.367 µM)
CCN(CC)C(=O)c1cc2cc(NC(=O)c3cc(NC(=O)CCCOc4cc5c(cc4OC)C(=O)N4CCC[C@H]4C=N5)cn3C)ccc2s1	1 (≈ 1.46 µM)

System: not listed separately
Experiment: Selectivity ratio of cytotoxicity against human WI38 cells to MIC for methicillin sensitive Staphylococcus aureus NCTC 6571
Format: toxicity, cell-based
Conditions: not given

SMILES	selectivity ratio
COc1cc2c(cc1OCCCC(=O)Nc1cc(C(=O)Nc3ccc4oc(C(=O)N5CCCCC5)cc4c3)n(C)c1)N=C[C@@H]1CCCN1C2=O	100
CCN(CC)C(=O)c1cc2cc(NC(=O)c3cc(NC(=O)CCCOc4cc5c(cc4OC)C(=O)N4CCC[C@H]4C=N5)cn3C)ccc2s1	100

System: not listed separately
Experiment: Selectivity ratio of cytotoxicity against human WI38 cells to MIC for methicillin resistant Staphylococcus aureus NCTC 13616
Format: toxicity, cell-based
Conditions: not given

SMILES	selectivity ratio
COc1cc2c(cc1OCCCC(=O)Nc1cc(C(=O)Nc3ccc4oc(C(=O)N5CCCCC5)cc4c3)n(C)c1)N=C[C@@H]1CCCN1C2=O	100
CCN(CC)C(=O)c1cc2cc(NC(=O)c3cc(NC(=O)CCCOc4cc5c(cc4OC)C(=O)N4CCC[C@H]4C=N5)cn3C)ccc2s1	100

System: Staphylococcus aureus
Experiment: Antibacterial activity against methicillin resistant Staphylococcus aureus NCTC 13277 by microdilution broth method
Format: functional
Conditions: not given

SMILES	MIC [µg/mL]
COc1cc2c(cc1OCCCC(=O)Nc1cc(C(=O)Nc3ccc4oc(C(=O)N5CCCCC5)cc4c3)n(C)c1)N=C[C@@H]1CCCN1C2=O	0.5 (≈ 0.734 µM)
CCN(CC)C(=O)c1cc2cc(NC(=O)c3cc(NC(=O)CCCOc4cc5c(cc4OC)C(=O)N4CCC[C@H]4C=N5)cn3C)ccc2s1	1 (≈ 1.46 µM)

System: not listed separately
Experiment: Selectivity ratio of cytotoxicity against human WI38 cells to MIC for multidrug-resistant Klebsiella pneumoniae NCTC 13368
Format: toxicity, cell-based
Conditions: not given

SMILES	selectivity ratio
COc1cc2c(cc1OCCCC(=O)Nc1cc(C(=O)Nc3ccc4oc(C(=O)N5CCCCC5)cc4c3)n(C)c1)N=C[C@@H]1CCCN1C2=O	10
CCN(CC)C(=O)c1cc2cc(NC(=O)c3cc(NC(=O)CCCOc4cc5c(cc4OC)C(=O)N4CCC[C@H]4C=N5)cn3C)ccc2s1	10

System: not listed separately
Experiment: Selectivity ratio of cytotoxicity against human WI38 cells to MIC for multidrug-resistant Pseudomonas aeruginosa NCTC 13437
Format: toxicity, cell-based
Conditions: not given

SMILES	selectivity ratio
COc1cc2c(cc1OCCCC(=O)Nc1cc(C(=O)Nc3ccc4oc(C(=O)N5CCCCC5)cc4c3)n(C)c1)N=C[C@@H]1CCCN1C2=O	10
CCN(CC)C(=O)c1cc2cc(NC(=O)c3cc(NC(=O)CCCOc4cc5c(cc4OC)C(=O)N4CCC[C@H]4C=N5)cn3C)ccc2s1	10

System: Acinetobacter baumannii
Experiment: Antimicrobial activity against multidrug-resistant Acinetobacter baumannii AYE by microdilution broth method
Format: functional
Conditions: not given

SMILES	MIC [µg/mL]
CCN(CC)C(=O)c1cc2cc(NC(=O)c3cc(NC(=O)CCCOc4cc5c(cc4OC)C(=O)N4CCC[C@H]4C=N5)cn3C)ccc2s1	2 (≈ 2.92 µM)

System: Acinetobacter baumannii
Experiment: Antimicrobial activity against Acinetobacter baumannii ATCC 17978 by microdilution broth method
Format: functional
Conditions: not given

SMILES	MIC [µg/mL]
COc1cc2c(cc1OCCCC(=O)Nc1cc(C(=O)Nc3ccc4oc(C(=O)N5CCCCC5)cc4c3)n(C)c1)N=C[C@@H]1CCCN1C2=O	2 (≈ 2.94 µM)
CCN(CC)C(=O)c1cc2cc(NC(=O)c3cc(NC(=O)CCCOc4cc5c(cc4OC)C(=O)N4CCC[C@H]4C=N5)cn3C)ccc2s1	2 (≈ 2.92 µM)

System: not listed separately
Experiment: Selectivity ratio of cytotoxicity against human WI38 cells to MIC for methicillin resistant Staphylococcus aureus NCTC 13277
Format: toxicity, cell-based
Conditions: not given

SMILES	selectivity ratio
COc1cc2c(cc1OCCCC(=O)Nc1cc(C(=O)Nc3ccc4oc(C(=O)N5CCCCC5)cc4c3)n(C)c1)N=C[C@@H]1CCCN1C2=O	100
CCN(CC)C(=O)c1cc2cc(NC(=O)c3cc(NC(=O)CCCOc4cc5c(cc4OC)C(=O)N4CCC[C@H]4C=N5)cn3C)ccc2s1	100

System: DNA
Experiment: Stabilization of 5'-FAM-TAT-ATA-TAG-ATA-TTT-TTT-TAT-CTA-TAT-ATA-3'-TAMRA DNA (unknown origin) assessed as reduction in change in melting temperature at 1:1 to 5:1 ligand to DNA ratio measured after 3 hrs by FRET-based assay relative to control
Format: ADME, nucleic-acid assay
Conditions: not given

SMILES	fold change (FC)
COc1cc2c(cc1OCCCC(=O)Nc1cc(C(=O)Nc3ccc4oc(C(=O)N5CCCCC5)cc4c3)n(C)c1)N=C[C@@H]1CCCN1C2=O	3 to 4
CCN(CC)C(=O)c1cc2cc(NC(=O)c3cc(NC(=O)CCCOc4cc5c(cc4OC)C(=O)N4CCC[C@H]4C=N5)cn3C)ccc2s1	3 to 4

System: not listed separately
Experiment: Selectivity ratio of cytotoxicity against human WI38 cells to MIC for multidrug-resistant Acinetobacter baumannii AYE
Format: toxicity, cell-based
Conditions: not given

SMILES	selectivity ratio
COc1cc2c(cc1OCCCC(=O)Nc1cc(C(=O)Nc3ccc4oc(C(=O)N5CCCCC5)cc4c3)n(C)c1)N=C[C@@H]1CCCN1C2=O	10
CCN(CC)C(=O)c1cc2cc(NC(=O)c3cc(NC(=O)CCCOc4cc5c(cc4OC)C(=O)N4CCC[C@H]4C=N5)cn3C)ccc2s1	10

System: not listed separately
Experiment: Selectivity ratio of cytotoxicity against human WI38 cells to MIC for vancomycin resistant Enterococcus faecalis NCTC 12201
Format: toxicity, cell-based
Conditions: not given

SMILES	selectivity ratio
COc1cc2c(cc1OCCCC(=O)Nc1cc(C(=O)Nc3ccc4oc(C(=O)N5CCCCC5)cc4c3)n(C)c1)N=C[C@@H]1CCCN1C2=O	100
CCN(CC)C(=O)c1cc2cc(NC(=O)c3cc(NC(=O)CCCOc4cc5c(cc4OC)C(=O)N4CCC[C@H]4C=N5)cn3C)ccc2s1	100

System: Enterococcus faecium
Experiment: Antibacterial activity against vancomycin resistant Enterococcus faecium NCTC 12204 by microdilution broth method
Format: functional
Conditions: not given

SMILES	MIC [µg/mL]
COc1cc2c(cc1OCCCC(=O)Nc1cc(C(=O)Nc3ccc4oc(C(=O)N5CCCCC5)cc4c3)n(C)c1)N=C[C@@H]1CCCN1C2=O	≤ 0.125
CCN(CC)C(=O)c1cc2cc(NC(=O)c3cc(NC(=O)CCCOc4cc5c(cc4OC)C(=O)N4CCC[C@H]4C=N5)cn3C)ccc2s1	1 (≈ 1.46 µM)

System: Enterococcus faecalis
Experiment: Antibacterial activity against vancomycin resistant Enterococcus faecalis NCTC 12201 by microdilution broth method
Format: functional
Conditions: not given

SMILES	MIC [µg/mL]
COc1cc2c(cc1OCCCC(=O)Nc1cc(C(=O)Nc3ccc4oc(C(=O)N5CCCCC5)cc4c3)n(C)c1)N=C[C@@H]1CCCN1C2=O	≤ 0.125
CCN(CC)C(=O)c1cc2cc(NC(=O)c3cc(NC(=O)CCCOc4cc5c(cc4OC)C(=O)N4CCC[C@H]4C=N5)cn3C)ccc2s1	0.5 (≈ 0.73 µM)

System: not listed separately
Experiment: Selectivity ratio of cytotoxicity against human WI38 cells to MIC for vancomycin resistant Enterococcus faecium NCTC 12204
Format: toxicity, cell-based
Conditions: not given

SMILES	selectivity ratio
COc1cc2c(cc1OCCCC(=O)Nc1cc(C(=O)Nc3ccc4oc(C(=O)N5CCCCC5)cc4c3)n(C)c1)N=C[C@@H]1CCCN1C2=O	100
CCN(CC)C(=O)c1cc2cc(NC(=O)c3cc(NC(=O)CCCOc4cc5c(cc4OC)C(=O)N4CCC[C@H]4C=N5)cn3C)ccc2s1	100

System: DNA
Experiment: Stabilization of 5'-FAM-TAT-AGA-TAT-AGA-TAT-TTT-ATA-TCT-ATA-TCT-ATA-3'-TAMRA DNA (unknown origin) assessed as reduction in change in melting temperature at 1:1 to 5:1 ligand to DNA ratio measured after 3 hrs by FRET-based assay relative to control
Format: ADME, nucleic-acid assay
Conditions: not given

SMILES	fold change (FC)
COc1cc2c(cc1OCCCC(=O)Nc1cc(C(=O)Nc3ccc4oc(C(=O)N5CCCCC5)cc4c3)n(C)c1)N=C[C@@H]1CCCN1C2=O	3 to 4
CCN(CC)C(=O)c1cc2cc(NC(=O)c3cc(NC(=O)CCCOc4cc5c(cc4OC)C(=O)N4CCC[C@H]4C=N5)cn3C)ccc2s1	3 to 4

System: not listed separately
Experiment: Selectivity ratio of cytotoxicity against human WI38 cells to MIC for vancomycin sensitive Enterococcus faecalis NCTC 775
Format: toxicity, cell-based
Conditions: not given

SMILES	selectivity ratio
COc1cc2c(cc1OCCCC(=O)Nc1cc(C(=O)Nc3ccc4oc(C(=O)N5CCCCC5)cc4c3)n(C)c1)N=C[C@@H]1CCCN1C2=O	100
CCN(CC)C(=O)c1cc2cc(NC(=O)c3cc(NC(=O)CCCOc4cc5c(cc4OC)C(=O)N4CCC[C@H]4C=N5)cn3C)ccc2s1	100

System: Staphylococcus aureus
Experiment: Antibacterial activity against methicillin sensitive Staphylococcus aureus NCTC 6571 by microdilution broth method
Format: functional
Conditions: not given

SMILES	MIC [µg/mL]
COc1cc2c(cc1OCCCC(=O)Nc1cc(C(=O)Nc3ccc4oc(C(=O)N5CCCCC5)cc4c3)n(C)c1)N=C[C@@H]1CCCN1C2=O	≤ 0.125

System: not listed separately
Experiment: Cytotoxicity against human WI38 cells assessed as cell viability at 20 uM measured after 24 hrs by MTT assay relative to control
Format: cell-based, WI-38
Conditions: read-out: Activity

SMILES	viability at 24 h, 20 µM [%]
COc1cc2c(cc1OCCCC(=O)Nc1cc(C(=O)Nc3ccc4oc(C(=O)N5CCCCC5)cc4c3)n(C)c1)N=C[C@@H]1CCCN1C2=O	> 85
CCN(CC)C(=O)c1cc2cc(NC(=O)c3cc(NC(=O)CCCOc4cc5c(cc4OC)C(=O)N4CCC[C@H]4C=N5)cn3C)ccc2s1	> 85

System: not listed separately
Experiment: Selectivity ratio of cytotoxicity against human WI38 cells to MIC for Acinetobacter baumannii ATCC 17978
Format: toxicity, cell-based
Conditions: not given

SMILES	selectivity ratio
COc1cc2c(cc1OCCCC(=O)Nc1cc(C(=O)Nc3ccc4oc(C(=O)N5CCCCC5)cc4c3)n(C)c1)N=C[C@@H]1CCCN1C2=O	10
CCN(CC)C(=O)c1cc2cc(NC(=O)c3cc(NC(=O)CCCOc4cc5c(cc4OC)C(=O)N4CCC[C@H]4C=N5)cn3C)ccc2s1	10

System: not listed separately
Experiment: Selectivity ratio of cytotoxicity against human WI38 cells to MIC for Pseudomonas aeruginosa PAO1
Format: toxicity, cell-based
Conditions: not given

SMILES	selectivity ratio
COc1cc2c(cc1OCCCC(=O)Nc1cc(C(=O)Nc3ccc4oc(C(=O)N5CCCCC5)cc4c3)n(C)c1)N=C[C@@H]1CCCN1C2=O	10
CCN(CC)C(=O)c1cc2cc(NC(=O)c3cc(NC(=O)CCCOc4cc5c(cc4OC)C(=O)N4CCC[C@H]4C=N5)cn3C)ccc2s1	10
